{"source": "patent US5612453A", "about": "“Selected peptides of the group-specific antigen (gag) of human immunodeficiency virus (HIV), the preparation and use thereof” (Chiron Behring GmbH & Co., priority 1990, dated 1997)", "assay_type_in_all_cases": "cell-based", "key": {"[1]": {"tested_on": "HIV-1 virus strain HTLV-IIIB", "experiment": "p24 detection by Western blot in HIV-infected cells after gag peptide treatment", "conditions": "two weeks after infection, Western blot with anti-p24 MAbs", "procedure": "(§1) Cells. Permanently growing T lymphocytes (Jurkat or H9 cells) were used for the in vitro experiments. The medium used was conventional RPMI 1640 with 10% FCS, 2% NaHCO3 (5% strength), 1% penicillin/streptavidin solution and 2 mg/l Polybrene. The experiments were carried out either in 96-well microtiter plates (Nunc) or in 24-well plates (Nunc).\n(§2) Viruses. HIV-1 virus strain HTLV-IIIB and HIV-2 strain ROD were used.\nIn the first experiment, 50 μl of 1×10^6 jurkat cells/ml were pipetted into each well of 96-well plates, and each was infected with 50 μl (1000 TCID50) HTLV-IIIB. The gag peptide concentration was adjusted to 200 μg/ml or 40 μg/ml. After one week, 100 μl of supernatant were removed and any cells still present were removed by centrifugation. Then 80 μl of supernatant were placed on an uninfected jurkat cell culture. Viral antigen was detected in the infected cells by immunolabeling after a Western blot. For this, the cells remaining after the inhibition experiment were taken up in 2×SDS-PAGE sample buffer and fractionated in a 14% PAG. The fractionated proteins were then blotted onto a nitrocellulose membrane and incubated with an anti-p24 HIV-1 monoclonal antibody to detect viral proteins. […] Infectious HIV in the supernatant of the peptide-treated cells was analyzed by the reverse transcriptase assay. […]"}, "[2]": {"tested_on": "HIV-1 virus strain HTLV-IIIB", "experiment": "Inhibition of HIV-1 synthesis: infectious virus / reverse transcriptase activity in detector cell culture supernatant", "conditions": "for inhibitory effect on HIV-1 synthesis (reverse transcriptase activity of detector culture supernatant): Experiment 3 (FIG. 3), 100 TCID50 HIV-1, jurkat cells, detector cultures incubated two weeks; for inhibitory effect on HIV-1 synthesis: Experiments 1 and 2, jurkat cells, 1000 or 100 TCID50 HTLV-IIIB, peptide 200 or 40 μg/ml", "procedure": "These peptides were added in various concentrations (200-40 μg/ml) to freshly infected jurkat cells. Infection was carried out with 100-1000 TCID50. The infection was analyzed by microscopic assessment and investigation of the supernatant for the content of infectious HIV. For this purpose, the cell supernatant was added to non-infected jurkat cells. After incubation for two weeks, this detector cell culture was examined for HIV under the microscope and by reverse transcriptase assay.\nPermanently growing T lymphocytes (Jurkat or H9 cells) were used for the in vitro experiments. The medium used was conventional RPMI 1640 with 10% FCS, 2% NaHCO3 (5% strength), 1% penicillin/streptavidin solution and 2 mg/l Polybrene. The experiments were carried out either in 96-well microtiter plates (Nunc) or in 24-well plates (Nunc).\nHIV-1 virus strain HTLV-IIIB and HIV-2 strain ROD were used.\n(§3) Reverse transcriptase assay. The microassay for detecting viral reverse transcriptase was carried out by the method of Gregersen et al. (Gregersen et al. (1988) Detection of human immunodeficiency virus and other retroviruses in cell culture supernatants by a reverse transcriptase microassay. J. Virol. Methods 19, 161-168). Cell culture supernatants were concentrated five-fold by PEG precipitation. Positive controls (VC) were supernatants of untreated infected cell cultures, and negative controls (NC) were cell culture supernatants from uninfected cells. The value measured for the NC was doubled and used as value for excluding negative cells.\nIn the first experiment, 50 μl of 1×10^6 jurkat cells/ml were pipetted into each well of 96-well plates, and each was infected with 50 μl (1000 TCID50) HTLV-IIIB. The gag peptide concentration was adjusted to 200 μg/ml or 40 μg/ml. After one week, 100 μl of supernatant were removed and any cells still present were removed by centrifugation. Then 80 μl of supernatant were placed on an uninfected jurkat cell culture. […] Infectious HIV in the supernatant of the peptide-treated cells was analyzed by the reverse transcriptase assay.\n1000 TCID50 HIV-1 were employed for infecting the jurkat cells. Reverse transcriptase activity measured in cpm in the cell culture supernatant from the detector cell culture. The supernatant was concentrated five-fold by PEG precipitation. VC=virus control; NC=negative control. Twice the NC value was used to exclude negative cell cultures. To improve clarity, the RT values are reported in the figure in logarithmic presentation.\n100 TCID50 HIV-1 were employed to infect the jurkat cells. Reverse transcriptase activity measured in cpm in the cell culture supernatant from the detector cell culture. The supernatant was concentrated five-fold by PEG precipitation. VC=virus control; NC=negative control."}, "HIV-2 strain ROD": {"tested_on": "HIV-2 strain ROD", "experiment": "Inhibition of HIV-2 synthesis: reverse transcriptase activity in detector cell culture supernatant (Experiment 3)", "conditions": "Experiment 3 (FIG. 3); 100 TCID50 HIV-2, H9 cells", "procedure": "as §1, §2, §3\nH9 cells were infected with 100 TCID50 HIV-2 for this experiment. […]\n100 TCID50 HIV-1 and HIV-2 were employed to infect the jurkat and H9 cells respectively. Reverse transcriptase activity measured in cpm in the cell culture supernatant from the detector cell culture. […]"}}}
{"sequence": "NPGLLETSEGCROILGQLQPSLQT [Peptide 5]", "values": [{"measurement": "p24 Detection", "setting": "[1]", "result": "(+)"}, {"measurement": "inhibitory effect on HIV-1 synthesis (reverse transcriptase activity of detector culture supernatant)", "setting": "[2]", "result": "strong inhibitory effect"}, {"measurement": "inhibitory effect on HIV-1 synthesis", "setting": "[2]", "result": "exerted an inhibitory effect on HIV-1 synthesis"}, {"measurement": "inhibition of HIV-2 synthesis (reverse transcriptase activity of detector culture supernatant)", "setting": "HIV-2 strain ROD", "result": "very clearly evident"}]}
{"sequence": "WASRELERFAVNPGLLETSEGCRQ [Peptide 4, synthetic gag peptide from the p17 submembrane protein]", "values": [{"measurement": "p24 Detection", "setting": "[1]", "result": "-"}, {"measurement": "inhibitory effect on HIV-1 synthesis (reverse transcriptase activity of detector culture supernatant)", "setting": "[2]", "result": "strong inhibitory effect"}, {"measurement": "inhibitory effect on HIV-1 synthesis", "setting": "[2]", "result": "exerted an inhibitory effect on HIV-1 synthesis"}, {"measurement": "inhibition of HIV-2 synthesis (reverse transcriptase activity of detector culture supernatant)", "setting": "HIV-2 strain ROD", "result": "very clearly evident"}]}
